Measured values as given in EP0973746B1, “SUBSTITUTED 3-CYANO QUINOLINES” (Wyeth Holdings Corporation, priority 1997, dated 1998).
≈ marks a conversion by molar mass, not a printed value. Where “and” joins values, the source holds several entries; their conditions need not be identical. Identical values can stand only once.

target: recombinant human MEK 1 (MAPKK) and recombinant human ERK2 (MAPK); experiment: Mitogen Activated Protein Kinase (MAPK) assay, two component coupled MEK 1 / ERK2; assay type: biochemical; conditions: separate entries for the same compound = evaluated more than one time;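 further: MEK 1-activated ERK2 phosphorylates MBP or Myc peptide with 33P-ATP, filter capture and scintillation counting, inhibitor preincubated with ERK2 30 min at 0 °C, inhibition relative to uninhibited control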

| SMILES | IC50 |
| --- | --- |
| CCOc1cc2ncc(C#N)c(NCc3ccc(Cl)c(Cl)c3)c2cc1OCC [Example 64, 4-(3.4-Dichlorophenylmethylamino)-6,7-diethoxy-3-quinolinecarbonitrile] | 3 µM |
| COc1cc2ncc(C#N)c(Nc3ccccc3CCO)c2cc1OC [Example 301, 4-[2-(2-Hydroxy-ethyl)-phenylamino]-6,7-dimethoxy-quinoline-3-carbonitrile] | 12 µM |
| CCCOc1cc2ncc(C#N)c(Nc3cccc(Br)c3)c2cc1OCCC [Example 303, 4-(3-Bromophenylamino)-6.7-di-n-propoxy-3-quinolinecarbonitrile] | > 100 µM |
| CCCCOc1cc2ncc(C#N)c(Nc3cccc(Br)c3)c2cc1OCCCC [Example 305, 4-(3-Bromophenylamino)-6,7-di-n-butoxy-3-quinolinecarbonitrile] | > 100 µM |
| COc1cc2ncc(C#N)c(Nc3cccc(CO)c3C)c2cc1OC [Example 333, 4-(3-Hydroxymethyl-2-methylphenylamino)-6,7-dimethoxyquinoline-3-carbonitrile] | 10 µM |
| COc1cc2ncc(C#N)c(Nc3cccc(O)c3)c2cc1OC [Example 339, 4-(3-Hydroxy-phenylamino)-6,7-dimethoxy-quinoline-3-carbonitrile] | 65 µM and 50 µM |
| COc1ccc(Nc2c(C#N)cnc3c(OC)cc([N+](=O)[O-])cc23)cc1O [Example 343, 4-(3-hydroxy-4-methoxy-phenylamino)-8-methoxy-6-nitro-quinoline-3-carbonitrile] | 60 µM |
| COc1cc(N)cc2c(Nc3ccc(C)c(O)c3)c(C#N)cnc12 [Example 344, 6-Amino-4-(3-hydroxy-4-methyl-phenylamino)-8-methoxy-quinoline-3-carbonitrile] | > 100 µM |
| COc1ccc(Nc2c(C#N)cnc3c(OC)cc(N)cc23)cc1O [Example 345, 6-Amino-4-(3-hydroxy-4-methoxy-phenylamino)-8-methoxy-quinoline-3-carbonitrile] | > 100 µM |
| C=CC(=O)Nc1ccc2ncc(C#N)c(Nc3cccc(C)c3)c2c1 [Example 349, N-{3-Cyano-4-[(3-methylphenyl)amino]-6-quinolinyl]-2-propenamide] | > 100 µM |
| CC#CC(=O)Nc1ccc2ncc(C#N)c(Nc3cccc(Cl)c3)c2c1 [Example 353, N-{4-[(3-Chlorophenyl)amino]-3-cyano-6-quinolinyl}-2-butynamide] | 40 µM |
| CC#CC(=O)Nc1ccc2ncc(C#N)c(Nc3cccc(C(C)C)c3)c2c1 [Example 354, N-{3-Cyano-4-[(3-isopropylphenyl)amino]-6-quinolinyl}-2-butynamide] | > 100 µM |
| C=CC(=O)Nc1ccc2ncc(C#N)c(Nc3cccc(C(C)C)c3)c2c1 [Example 355, N-{3-Cyano-4-[(3-isopropylphenyl)amino]-6-quinolinyl}-2-propenamide] | 45 µM |
| CC(C)c1cccc(Nc2c(C#N)cnc3ccc([N+](=O)[O-])cc23)c1 [Example 357, 4-[(3-Isopropylphenyl)amino]-6-nitro-3-quinolinecarbonitrile] | > 100 µM |
| COc1cc2ncc(C#N)c(Nc3cccc(N=[N+]=[N-])c3)c2cc1OC [Example 359, 4-(3-Azido-phenylamino)-6,7-dimethoxy-quinoline-3-carbonitrile] | > 100 µM |
| N#Cc1cnc2ccc([N+](=O)[O-])cc2c1Nc1ccc(Cl)c(Cl)c1 [Example 362, 4-[(3.4-dichlorophenyl)amino]-6-nitro-3-quinolinecarbonitrile] | > 100 µM |
| COc1cc2ncc(C#N)c(Nc3cccc(N(C)C)c3)c2cc1OC [Example 366, 4-(3-Dimethylamino-phenylamino)-6,7-dimethoxy-quinoline-3-carbonitrile] | 4 µM |
| COc1cc2ncc(C#N)c(Nc3cccc(O)c3C)c2cc1OC [Example 374, 4-(3-Hydroxy-2-methyl-phenylamino)-6,7-dimethoxy-quinoline-3-carbonitrile] | < 1 µM and 2 µM |
| N#Cc1cnc2ccc(N)cc2c1Nc1cccc(F)c1 [Example 385, 6-Amino-4-(3-fluorophenylamino)quinoline-3-carbonitrile] | 90 µM |
| CN(C)c1cccc(Nc2c(C#N)cnc3ccc(N)cc23)c1 [Example 388, 6-Amino-4-(3-dimethylaminophenylamino)quinoline-3-carbonitrile] | 25 µM and 50 µM |
| CC#CC(=O)Nc1ccc2ncc(C#N)c(Nc3cccc(F)c3)c2c1 [Example 390, But-2-ynoic Acid [4-(3-Fluorophenylamino)-3-cyanoquinolin-6-yl]amide] | > 100 µM |
| CC#CC(=O)Nc1ccc2ncc(C#N)c(Nc3ccc(N(C)C)cc3)c2c1 [Example 394, But-2-ynoic Acid [3-Cyano-4-(4-dimethylaminophenylamino)quinolin-6-yl]amide] | > 100 µM |

Results, then the molecule that gave them:

| IC50 | SMILES |
| --- | --- |
| > 100 µM | COc1cc2ncc(C#N)c(Nc3ccc(CCO)cc3)c2cc1OC [Example 299, 4-[4-(2-Hydroxy-ethyl)-phenylamino]-6,7-dimethoxy-quinoline-3-carbonitrile] |
| 20 µM | COc1cc2ncc(C#N)c(Nc3ccc(O)cc3O)c2cc1OC [Example 300, 4-(2,4-Dihydroxy-phenylamino)-6,7-dimethoxy-quinoline-3-carbonitrile] |
| 15 µM | COc1cc2ncc(C#N)c(Nc3cc(O)c(Cl)cc3F)c2cc1OCCCN1CCOCC1 [Example 323, 4-(4-Chloro-2-fluoro-5-hydroxy-phenylamino)-7-methoxy-6-(3-morpholin-4-yl)-propoxyl-quinoline-3-carbonitrile] |
| > 100 µM | COCc1cc2ncc(C#N)c(Nc3cccc(Br)c3)c2cc1COC [Example 325, 4-(3-Bromophenylamino)-6,7-di-methoxymethyl-3-quinolinecarbonitrile] |
| > 100 µM | COc1cc2ncc(C#N)c(Nc3ccc(C)cc3)c2cc1OC [Example 340, 4-(4-methyl-phenylamino)-6,7-dimethoxy-quinoline-3-carbonitrile] |
| > 100 µM | COc1cc([N+](=O)[O-])cc2c(Nc3ccc(C)c(O)c3)c(C#N)cnc12 [Example 341, 4-(3-Hydroxy-4-methyl-phenylamino)-8-methoxy-6-nitro-quinoline-3-carbonitrile] |
| > 100 µM | COc1cc([N+](=O)[O-])cc2c(Nc3ccc(Cl)cc3F)c(C#N)cnc12 [Example 342, 4-(4-chloro-2-fluoro-phenylamino)-8-methoxy-6-nitro-quinoline-3-carbonitrile] |
| > 100 µM and 80 µM | CC#CC(=O)Nc1ccc2ncc(C#N)c(Nc3cccc(I)c3)c2c1 [Example 348, N-{3-Cyano-4-[(3-iodophenyl)amino]-6-quinolinyl}-2-butynamide] |
| 32 µM | C=CC(=O)Nc1ccc2ncc(C#N)c(Nc3ccc(Sc4ccccc4)c(Cl)c3)c2c1 [Example 351, N-{4-[(3-Chloro-4-thiophenoxyphenyl)amino]-3-cyano-6-quinoliny}-2-propenamide] |
| > 100 µM | CC(C)c1cccc(Nc2c(C#N)cnc3ccc(N)cc23)c1 [Example 356, 6-Amino-4-[(3-isopropylphenyl)amino]-3-quinolinecarbonitrile] |
| > 100 µM | CSc1cccc(Nc2c(C#N)cnc3ccc([N+](=O)[O-])cc23)c1 [Example 364, 4-[(3-Methylsulfanylphenyl)amino]-6-nitro-3-quinolinecarbonitrile] |
| > 100 µM | N#Cc1cnc2ccc([N+](=O)[O-])cc2c1Nc1cccc(OC(F)(F)F)c1 [Example 365, 4-[(3-Trifluoromethoxyphenyl)amino]-6-nitro-3-quinolinecarbonitrile] |
| > 100 µM | N#Cc1cnc2ccc([N+](=O)[O-])cc2c1Nc1ccc(Br)c(Br)c1 [Example 377, 4-(3,4-Dibromophenylamino)-6-nitroquinoline-3-carbonitrile] |
| 40 µM | N#Cc1cnc2ccc(N)cc2c1Nc1ccc(Br)c(Br)c1 [Example 379, 6-Amino-4-(3,4-dibromophenylamino)quinoline-3-carbonitrile] |
| > 100 µM | CCC(=O)Nc1ccc2ncc(C#N)c(Nc3cccc(Br)c3)c2c1 [Example 381, N-[4-(3-Bromophenylamino)-3-cyanoquinolin-6-yl]propionamide] |
| > 100 µM | C/C=C/C(=O)Nc1ccc2ncc(C#N)c(Nc3cccc(Br)c3)c2c1 [Example 382, (E)-But-2-enoic Acid [4-(3-Bromophenylamino)-3-cyanoquinolin-6-yl]amide] |
| > 100 µM | N#Cc1cnc2ccc([N+](=O)[O-])cc2c1Nc1cccc(F)c1 [Example 384, 4-(3-Fluorophenylamino)-6-nitroquinoline-3-carbonitrile] |
| > 100 µM | CN(C)c1cccc(Nc2c(C#N)cnc3ccc([N+](=O)[O-])cc23)c1 [Example 386, 4-(3-Dimethylaminophenylamino)-6-nitroquinoline-3-carbonitrile] |
| > 100 µM | CN(C)c1ccc(Nc2c(C#N)cnc3ccc([N+](=O)[O-])cc23)cc1 [Example 387, 4-(4-Dimethylaminophenylamino)-6-nitroquinoline-3-carbonitrile] |
| > 100 µM | CN(C)c1ccc(Nc2c(C#N)cnc3ccc(N)cc23)cc1 [Example 389, 6-Amino-4-(4-dimethylaminophenylamino)quinoline-3-carbonitrile] |

tested on: SW620; experiment: Inhibition of cancer cell growth as measured by cell number, SW620; assay type: cell-based, human; conditions: Homo sapiens, SW-620, 48 h, read-out: IC50 SW620, cell number, Sulforhodamine B, 48 hours exposure; Table 8;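 further: SW620 was included as a cell line with little or no EGFR or HER2/neu expression, in contrast to receptor-overexpressing lines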
Excerpt: (§1) The cell lines were chosen since they overexpressed epidermal growth factor receptor (EGFR) (i.e. A431) or HER2/neu (SKBR3), or had little to no expression of the these receptors (SW620, LOX, MCF7).

| SMILES | IC50 |
| --- | --- |
| C=C(CN1CCOCC1)C(=O)Nc1ccc2ncc(C#N)c(Nc3ccc(F)c(Cl)c3)c2c1 [Example 148, N-{4-[(3-chloro-4-fluorophenyl)amino]-3-cyano-6-quinolinyl}-2-morpholin-4-ylmethyl-2-propenamide] | 0.26 µg/mL (≈ 0.558 µM) |

same assay, conditions: cell number, Sulforhodamine B, 48 hours exposure; Table 8

| IC50 SW620 | SMILES |
| --- | --- |
| 0.3 µg/mL (≈ 0.864 µM) | CCOc1cc2ncc(C#N)c(NCc3ccccc3)c2cc1OCC [Example 62, 4-(3-Phenylmethylamino)-6,7-diethoxy-3-quinolinecarbonitrile] |
| 1.603 µg/mL (≈ 3.85 µM) | CCOc1cc2ncc(C#N)c(NCc3ccc(Cl)c(Cl)c3)c2cc1OCC [Example 64, 4-(3.4-Dichlorophenylmethylamino)-6,7-diethoxy-3-quinolinecarbonitrile] |

tested on: SKBR3; experiment: Inhibition of cancer cell growth as measured by cell number, SKBR3; assay type: cell-based, human; conditions: Homo sapiens, SK-BR-3, 48 h, read-out: IC50 SKBR3, cell number, Sulforhodamine B, 48 hours exposure; Table 8;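 further: SK-BR-3 cells were selected as a line overexpressing HER2/neu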
Excerpt: as §1

| SMILES | IC50 |
| --- | --- |
| C=C(CN1CCOCC1)C(=O)Nc1ccc2ncc(C#N)c(Nc3ccc(F)c(Cl)c3)c2c1 [Example 148, N-{4-[(3-chloro-4-fluorophenyl)amino]-3-cyano-6-quinolinyl}-2-morpholin-4-ylmethyl-2-propenamide] | 0.043 µg/mL (≈ 0.0923 µM) |

same assay, conditions: cell number, Sulforhodamine B, 48 hours exposure; Table 8

| IC50 SKBR3 | SMILES |
| --- | --- |
| 0.3 µg/mL (≈ 0.864 µM) | CCOc1cc2ncc(C#N)c(NCc3ccccc3)c2cc1OCC [Example 62, 4-(3-Phenylmethylamino)-6,7-diethoxy-3-quinolinecarbonitrile] |
| 1.965 µg/mL (≈ 4.72 µM) | CCOc1cc2ncc(C#N)c(NCc3ccc(Cl)c(Cl)c3)c2cc1OCC [Example 64, 4-(3.4-Dichlorophenylmethylamino)-6,7-diethoxy-3-quinolinecarbonitrile] |
